Read-outs that look alike come from different tables or passages of the source.
Columns and labels:
cryptosporidiosis = conditions: cited from earlier work
C. parvum = test: In vitro inhibition of C. parvum development in HCT-8 cells; format: cell-based; conditions: Cryptosporidium parvum
[1] = HCT-8 cells, Table 4, read-out: EC50 for inhibition of C. parvum development in HCT-8 cells
[2] = average EC50, C. parvum in HCT-8 cells, read-out: Cp HTC-8 Avg EC50

SMILES | EC50 (C. parvum; [1]) [nM] | EC50 (C. parvum; [2]) [nM] | efficacy in cryptosporidiosis (cryptosporidiosis; AIDS patients) | efficacy in cryptosporidiosis (cryptosporidiosis; children)
CC(=O)Oc1ccccc1C(=O)Nc1ncc([N+](=O)[O-])s1 [Nitazoxanide] |  |  | no more effective than placebo | partial efficacy
C#Cc1ccc(CC(=O)N2CCN(c3ccc4nncn4n3)CC2)cc1 [Example 10046, 2-(4-ethynylphenyl)-1-(4-{[1,2,4]triazolo[4,3-b]pyridazin-6-yl}piperazin-1-yl)ethan-1-one] | 883 | 883 |  | 
O=C(N1CCN(c2ccc3nncn3n2)CC1)C1(c2ccc(Cl)c(Cl)c2)CC1 [Example 2766, 1-[1-(3,4-dichlorophenyl)cyclopropanecarbonyl]-4-{[1,2,4]triazolo[4,3-b]pyridazin-6-yl}piperazine] | 8330 |  |  | 
O=C(Cc1cccc(S(F)(F)(F)(F)F)c1)N1CCN(c2ccc3nncn3n2)CC1 [Example 10442, 2-[3-(pentafluoro-λ^6-sulfanyl)phenyl]-1-(4-{[1,2,4]triazolo[4,3-b]pyridazin-6-yl}piperazin-1-yl)ethan-1-one] | 1120 |  |  | 
O=C(Cc1cc(Cl)cc(Cl)c1)N1CCN(c2ccc3nncn3n2)CC1 [Example 2747, 2-(3,5-dichlorophenyl)-1-(4-{[1,2,4]triazolo[4,3-b]pyridazin-6-yl}piperazin-1-yl)ethan-1-one] | 990 | 990 |  | 
O=C(Cc1ccc(F)c(Br)c1)N1CCN(c2ccc3nncn3n2)CC1 [Example 10241, 2-(3-bromo-4-fluorophenyl)-1-(4-{[1,2,4]triazolo[4,3-b]pyridazin-6-yl}piperazin-1-yl)ethan-1-one] | 232 | 232 |  | 
O=C(Cc1ccccc1)N1CCN(c2ccc3nncn3n2)CC1 [Example 2819, 2-phenyl-1-(4-{[1,2,4]triazolo[4,3-b]pyridazin-6-yl}piperazin-1-yl)ethan-1-one] | 22000 |  |  | 
Cc1ccc(CC(=O)N2CCN(c3ccc4nncn4n3)CC2)cc1F [Example 2757, 2-(3-fluoro-4-methylphenyl)-1-(4-{[1,2,4]triazolo[4,3-b]pyridazin-6-yl}piperazin-1-yl)ethan-1-one] | 5560 |  |  | 
O=C(Cc1ccc2c(c1)OCO2)N1CCN(c2ccc3nncn3n2)CC1 [Example 10422, 2-(2H-1,3-benzodioxol-5-yl)-1-(4-{[1,2,4]triazolo[4,3-b]pyridazin-6-yl}piperazin-1-yl)ethan-1-one] | 10400 |  |  | 
Cc1cc(CC(=O)N2CCN(c3ccc4nncn4n3)CC2)ccc1F [Example 2759, 2-(4-fluoro-3-methylphenyl)-1-(4-{[1,2,4]triazolo[4,3-b]pyridazin-6-yl}piperazin-1-yl)ethan-1-one] | 335 | 353 |  | 
O=C(Cc1ccc(F)cc1)N1CCN(c2ccc3nncn3n2)CC1 [Example 2632, 2-(4-fluorophenyl)-1-(4-{[1,2,4]triazolo[4,3-b]pyridazin-6-yl}piperazin-1-yl)ethan-1-one] | 1180 |  |  | 
CC1CN(c2ccc3nncn3n2)CCN1C(=O)Cc1ccc(Cl)c(Cl)c1 (centres unmarked) [Example 2752, 2-(3,4-dichlorophenyl)-1-(2-methyl-4-{[1,2,4]triazolo[4,3-b]pyridazin-6-yl}piperazin-1-yl)ethan-1-one] | 7440 |  |  | 

Second part, led by results:

EC50 (C. parvum; [1]) [nM] | EC50 (C. parvum; [2]) [nM] | SMILES | efficacy in cryptosporidiosis (cryptosporidiosis; AIDS patients) | efficacy in cryptosporidiosis (cryptosporidiosis; children)
272 | 272 | O=C(Cc1ccc(Cl)c(C(F)(F)F)c1)N1CCN(c2ccc3nncn3n2)CC1 [Example 10481, 2-[4-chloro-3-(trifluoromethyl)phenyl] -1-(4-{[1,2,4]triazolo[4,3-b]pyridazin-6-yl}piperazin-1-yl)ethan-1-one] |  | 
240 | 238 | O=C(Cc1ccc(F)c(Cl)c1)N1CCN(c2ccc3nncn3n2)CC1 [Example 2763, 2-(3-chloro-4-fluorophenyl)-1-(4-{[1,2,4]triazolo[4,3-b]pyridazin-6-yl}piperazin-1-yl)ethan-1-one] |  | 
15000 |  | O=C(Cc1ccc(Cl)c(Cl)c1)N1CCN(c2ccc3nnc(-c4ccccc4)n3n2)CC1 [Example 2807, 2-(3,4-dichlorophenyl)-1-(4-{3-phenyl-[1,2,4]triazolo[4,3-b]pyridazin-6-yl}piperazin-1-yl)ethan-1-one] |  | 
29000 |  | O=C(Cc1ccc(Cl)c(Cl)c1)N1CCN(c2ccc3nnc(C(F)(F)F)n3n2)CC1 [Example 2810, 2-(3,4-dichlorophenyl)-1-{4-[3-(trifluoromethyl)-[1,2,4]triazolo[4,3-b]pyridazin-6-yl]piperazin-1-yl}ethan-1-one] |  | 
5450 |  | O=C(Cc1ccc(C(F)(F)F)cc1)N1CCN(c2ccc3nncn3n2)CC1 [Example 10484, 1-(4-{[1,2,4]triazolo[4,3-b]pyridazin-6-yl}piperazin-1-yl)-2-[4-(trifluoromethyl)phenyl] ethan-1-one] |  | 
407 | 407 | O=C(Cc1cc(Cl)cc(C(F)(F)F)c1)N1CCN(c2ccc3nncn3n2)CC1 [Example 10479, 2-[3-chloro-5-(trifluoromethyl)phenyl] -1-(4-{[1,2,4]triazolo[4,3-b]pyridazin-6-yl}piperazin-1-yl)ethan-1-one] |  | 
16000 |  | O=C(Cc1ccc(Cl)c(Cl)c1)N1CCN(c2ccc3nnc(Cc4ccccc4)n3n2)CC1 [Example 10249, 1-(4-{3-benzyl-[1,2,4]triazolo[4,3-b]pyridazin-6-yl}piperazin-1-yl)-2-(3,4-dichlorophenyl)ethan-1-one] |  | 
773 | 773 | O=C(Cc1ccc(Br)c(F)c1)N1CCN(c2ccc3nncn3n2)CC1 [Example 10240, 2-(4-bromo-3-fluorophenyl)-1-(4-{[1,2,4]triazolo[4,3-b]pyridazin-6-yl}piperazin-1-yl)ethan-1-one] |  | 
